Data set [1] in a line: Storage stability: impurities/degradants by HPLC. Format: physicochemical. On the procedure:
Particle size and globule size were likewise measured at the start of storage and at the one month or three month interval, respectively, according to USP 729. Impurities were also measured at the start of storage and at the one month or three month intervals, respectively. Viscosity was also measured at the start of storage and at the one month or three month intervals, respectively. Osmolality was also measured at the start of storage and at the one month or three month intervals, respectively, according to USP 785. Briefly, to measure betamethasone dipropionate and betamethasone content as well as impurities/degradants, HPLC was used. […] The 50 mL tubes were then removed from the heat and vortex mixed again for 30 seconds. If necessary, the tubes were returned to the water bath to prevent cooling. […] The tubes were then centrifuged for 30 minutes at 12,000 RPM and supernatant was transferred to a HPLC vial for analysis. The HPLC system was rinsed well with 50:50 acetonitrile:water to remove buffer salts after each run. […] HPLC was run using a Hypersil ODS 10×30 mm, 3 μm column as the Guard Column and a Hypersil ODS 3×150 mm, 3 μm column as the Analytical Column. The column temperature was maintained at 35° C. with a runtime of 45 minutes, a flow rate of 0.5 mL/minute, an injection volume of 3 μL, an autosampler temperature of 30° C., and using a 254 nm (UV absorbance) detector and collecting PDA from 200 nm to 400 nm for identification testing. […] Mobile Phase B was prepared as 88:12 methanol:acetonitrile. […] All mobile phase solutions were mixed well and degassed prior to use. […] A Working Standard Solution was prepared from 3.0 mL of the IS Stock Solution and 8.0 mL of the BD Stock in a 50 mL volumetric flask to which 150 mg of benzyl alcohol reference standard was added and diluent added to volume followed by mixing well. […] System suitability requirements included those in Table 38. The Ratio RT (RRT) in Table 39 can be calculated from the ratio of the sample retention time to the mean retention time of the bracketing standards.

The nature of data set [2]: Recovery of force-degraded MFM spiked into placebo cream and of active cream (0.1% MFM), HPLC. Format: physicochemical. On the procedure: MFM neat and degraded materials were spiked into placebo cream (lot #2020-11-01) to investigate potential partitioning effects and peak interferences and to compare spiked and active cream samples by the procedure in Table 50 with the exception that for acid, base and peroxide degradations, the additions of HCl, NaOH and peroxide were calculated accordingly.
Percent recovery of Force-Degraded Materials Spiked into Placebo is provided in Table 51 below while recovery of active cream formulation (0.1% MFM) is provided in Table 52 below.

The mark [3] stands for this setting: stored at 25° C./60% RH, 1 Month, Mean.
The mark [4] stands for this setting: stored at 25° C./60% RH, 1 Month, Prep #1.
Where [5] appears, read: stored at 25° C./60% RH, 1 Month, Prep #2.
Where [6] appears, read: stored at 25° C./60% RH, 3 Month, Mean.
Where [7] appears, read: stored at 25° C./60% RH, 3 Month, Prep #1.
[8] abbreviates: stored at 25° C./60% RH, 3 Month, Prep #2.
Where [9] appears, read: stored at 30° C./65% RH, 1 Month, Mean.
Setting [10] is: stored at 30° C./65% RH, 1 Month, Prep #1.
[11] abbreviates: stored at 30° C./65% RH, 1 Month, Prep #2.
[12] abbreviates: stored at 30° C./65% RH, 3 Month, Mean.
Where [13] appears, read: stored at 30° C./65% RH, 3 Month, Prep #1.
Where [14] appears, read: stored at 30° C./65% RH, 3 Month, Prep #2.
Where [15] appears, read: stored at 40° C./75% RH, 1 Month, Mean.
Setting [16] is: stored at 40° C./75% RH, 1 Month, Prep #1.
[17] abbreviates: stored at 40° C./75% RH, 1 Month, Prep #2.
Where [18] appears, read: stored at 40° C./75% RH, 3 Month, Mean.
[19] abbreviates: stored at 40° C./75% RH, 3 Month, Prep #1.
Setting [20] is: stored at 40° C./75% RH, 3 Month, Prep #2.
Where [21] appears, read: stored at 25° C./60% RH, Initial, Mean.
The mark [22] stands for this setting: stored at 25° C./60% RH, Initial, Prep #2.
[23] abbreviates: stored at 30° C./65% RH, Initial, Mean.
Setting [24] is: stored at 30° C./65% RH, Initial, Prep #2.
The mark [25] stands for this setting: stored at 40° C./75% RH, Initial, Mean.
The mark [26] stands for this setting: stored at 40° C./75% RH, Initial, Prep #2.

We go through four compounds from patent US20230277452A1, “COMPOSITIONS, DEVICES AND METHODS FOR TREATING NASAL, OTIC AND OTHER TISSUE INFECTION AND/OR INFLAMMATION” (priority 2020, published 2023).

For `CCC(=O)OCC(=O)C1(O)C(C)CC2C3CCC4=CC(=O)C=CC4(C)C3(F)C(O)CC21C` (stereo not drawn) [Lot 4], the “Impurity (% of related substances) in Betamethasone Dipropionate Cream Formulation” value (from here on “Impurity (% of related substances)”) in data set [1] (setting [3]) worked out at 0.09%; in data set [1] (setting [4]), 0.08%; in data set [1] (setting [5]), 0.10%; in data set [1] (setting [6]), 0.22%; in data set [1] (setting [7]) it was 0.19%; in data set [1] (setting [8]), 0.25%. Moreover, the “Impurity (% of related substances)” value in data set [1] (setting [9]) was determined as 0.15%; in data set [1] (setting [10]) it was 0.13%; in data set [1] (setting [11]) it was 0.17%; in data set [1] (setting [12]), 0.50%; in data set [1] (setting [13]), 0.44%; in data set [1] (setting [14]), 0.56%. In addition, the “Impurity (% of related substances)” value in data set [1] (setting [15]) came out at 0.53%; in data set [1] (setting [16]), 0.48%; in data set [1] (setting [17]), 0.58%; in data set [1] (setting [18]) it was 1.99%; in data set [1] (setting [19]), 1.86%; in data set [1] (setting [20]) it was 2.12%.

As to `CCC(=O)OC1(C(=O)CO)C(C)CC2C3CCC4=CC(=O)C=CC4(C)C3(F)C(O)CC21C` (stereo not drawn) [Lot 5], the “Impurity (% of related substances)” value is 0.34% in data set [1] (setting [3]); 0.31% in data set [1] (setting [4]); 0.37% in data set [1] (setting [5]); 0.49% in data set [1] (setting [6]); 0.43% in data set [1] (setting [7]); 0.54% in data set [1] (setting [8]). Further, the “Impurity (% of related substances)” value in data set [1] (setting [21]) worked out at 0.18%; in data set [1] (stored at 25° C./60% RH, Initial, Prep #1) it was 0.16%; in data set [1] (setting [22]) it was 0.20%; in data set [1] (setting [9]) it was 0.43%; in data set [1] (setting [10]), 0.38%; in data set [1] (setting [11]), 0.48%. Also, the “Impurity (% of related substances)” value in data set [1] (setting [12]) was 0.73%; in data set [1] (setting [13]), 0.66%; in data set [1] (setting [14]) it was 0.79%; in data set [1] (setting [23]) it was 0.18%; in data set [1] (stored at 30° C./65% RH, Initial, Prep #1), 0.16%; in data set [1] (setting [24]), 0.20%. The “Impurity (% of related substances)” value in data set [1] (setting [15]) was 0.64%; in data set [1] (setting [16]), 0.59%; in data set [1] (setting [17]) it was 0.68%; in data set [1] (setting [18]), 0.93%; in data set [1] (setting [19]) it was 0.86%; in data set [1] (setting [20]), 0.99%. The “Impurity (% of related substances)” value stood at 0.18% in data set [1] (setting [25]); 0.16% in data set [1] (stored at 40° C./75% RH, Initial, Prep #1); 0.20% in data set [1] (setting [26]).

`CCC(=O)OCC(=O)[C@@]1(OC(=O)CC)[C@@H](C)C[C@H]2[C@@H]3CC(Br)C4=CC(=O)C=C[C@]4(C)[C@@]3(F)[C@@H](O)C[C@@]21C` (stereo partly drawn) [Lot 9]: the “Impurity (% of related substances)” value in data set [1] (setting [21]), in data set [1] (setting [22]), in data set [1] (setting [23]), in data set [1] (setting [24]), in data set [1] (setting [25]) and in data set [1] (setting [26]) was 0.12% throughout.

Turning to `C[C@@H]1C[C@H]2[C@@H]3CCC4=CC(=O)C=C[C@]4(C)[C@@]3(Cl)[C@@H](O)C[C@]2(C)[C@@]1(OC(=O)c1ccco1)C(=O)CCl.O` [Mometasone Furoate Momohydrate], the “Difference with Placebo (neat vs spiked recovery)” value in data set [2] (0.1N HC1 (1 hour)) is recorded as 5.23%; in data set [2] (0.1N NaOH (1 hour)), 0.13%; in data set [2] (3% H2O2 (1 hour)) it was 5.20%; in data set [2] (60° C. (5 days)), 4.96%; in data set [2] (Control (neat MFM)) it was 5.87%; in data set [2] (White light (5 days)), 5.29%.
